Data on seven molecules can be found in US12285489B2, “Bone targeted antimicrobial oxazolidinone related compounds, formulations thereof, and uses thereof” (priority 2018, dated 2025).

Holding throughout (type): cell-based
Assay [1] relates to S. aureus. As to the kind of experiment: Antimicrobial susceptibility (MIC/MBEC), standard assays in polystyrene wells. The following applies: for MIC: Staphylococcus aureus.
Assay [2] deals with S. aureus. Description: Preventative hydroxyapatite (HA) experiment. As to conditions: K-W test, p<0.01; comparator=control; FIG. 16. An excerpt: FIG. 16 depicts the results of a preventative hydroxyapatite (HA) experiment with tested compounds against S. aureus.
FIG. 16 depicts the results of a preventative hydroxyapatite (HA) experiment with tested compounds against S. aureus. […] (K-W test, * p<0.01; comparator=control). The results were obtained using standard assays.

Assay [3] deals with S. aureus biofilm. Description: Ex vivo rat femur biofilm prevention setting. As to conditions: rat femurs saturated with compound; K-W test, p<0.01; comparator=control; FIG. 18B. An excerpt:
FIG. 18A is a picture of rat femurs saturated with antibiotics or the conjugates after they are introduced to a solution of S. aureus in our ex vivo preventative experimental setting. The more the bone appears red, the more staphylococcal biofilms there are adhered to the surface in those regions.
FIG. 18A depicts a picture of rat femurs saturated with antibiotics or the conjugates after they are introduced to a solution of S. aureus in our ex vivo preventative experimental setting. The more the bone appears red, the more staphylococcal biofilms there are adhered to the surface in those regions.

Assay [4] deals with S. aureus biofilm. As to the kind of experiment: Ex vivo rat femur biofilm eradication setting. The following applies: K-W test, p<0.01, comparator=control, FIG. 18B.
Another assay has as its system Aa. As to the kind of experiment: Antimicrobial susceptibility (MIC/MBEC), standard assays in polystyrene wells.
[5] abbreviates: S. aureus, polystyrene wells, read-out: MIC.

The structures appear in SMILES notation. Values after ≈ are worked out from the molar mass of the structure shown. Like-named read-outs stand apart in the source and are kept apart here.

`Cn1nnc(-c2ccc(-c3ccc(N4C[C@H](COC(=O)Nc5ccc(CC(P(=O)(O)O)P(=O)(O)O)cc5)OC4=O)cc3F)cn2)n1` [BCT, (R)-(2-(4-((((3-(3-fluoro-4-(6-(2-methyl-2H-tetrazol-5-yl)pyridin-3-yl)phenyl)-2-oxooxazolidin-5-yl)methoxy)carbonyl)amino)phenyl)ethane-1,1-diyl)bis(phosphonic acid)]: in the assay with S. aureus [1] (S. aureus, polystyrene wells), the MBEC came out at 32 µg/mL. In the assay on S. aureus [1] (setting [5]), the minimum inhibitory concentration (MIC) came out at 16 µg/mL (≈ 23.6 µM).
As to `Cn1nnc(-c2ccc(-c3ccc(N4C[C@H](COC(=O)c5ccc(CC(P(=O)(O)O)P(=O)(O)O)cc5)OC4=O)cc3F)cn2)n1` [BET, (R)-(2-(4-(((3-(3-fluoro-4-(6-(2-methyl-2H-tetrazol-5-yl)pyridin-3-yl)phenyl)-2-oxooxazolidin-5-yl)methoxy)carbonyl)phenyl)ethane-1,1-diyl)bis(phosphonic acid)], in the assay with S. aureus [1] (S. aureus, polystyrene wells), the MBEC turned out to be 16 µg/mL. Besides, in the assay on S. aureus [1] (setting [5]), the MIC was determined as 4 µg/mL (≈ 6.04 µM). For the same molecule, the “efficacy for preventing the growth of staphylococcal cells on HA” value in the assay on S. aureus [2] is “statistically significant efficacy for preventing the growth of staphylococcal cells”. Besides, in the assay with S. aureus biofilm [3], the “S. aureus biofilm prevention on femurs ex vivo” value was “significantly prevented or eradicated biofilm growth”. For the same molecule, the “S. aureus biofilm eradication on femurs ex vivo” value in the assay with S. aureus biofilm [4] is “significantly prevented or eradicated biofilm growth”.
For `O=C(O)c1cn(C2CC2)c2cc(N3CCNCC3)c(F)cc2c1=O` [C, Ciprofloxacin], the MBEC was 32 µg/mL in the assay on S. aureus [1] (S. aureus, polystyrene wells) and 8 µg/mL with Aa. Moreover, the minimum inhibitory concentration (MIC) with S. aureus [1] (setting [5]) and against Aa was 0.5 µg/mL (≈ 1.51 µM) in each case.
For the molecule `CN(C)c1ccc(O)c2c1C[C@H]1C[C@H]3[C@H](N(C)C)C(O)=C(C(N)=O)C(=O)[C@@]3(O)C(O)=C1C2=O` [M, Minocycline], the MBEC with S. aureus [1] (S. aureus, polystyrene wells) is 16 µg/mL; in the assay with Aa, 8 µg/mL. The MIC amounted to 0.25 µg/mL (≈ 0.546 µM) in the assay on S. aureus [1] (setting [5]) and 2 µg/mL (≈ 4.37 µM) in the assay on Aa.
As for `Cn1nnc(-c2ccc(-c3ccc(N4C[C@H](CO)OC4=O)cc3F)cn2)n1` [T, Tedizolid], in the assay on S. aureus [1] (S. aureus, polystyrene wells), the MBEC stood at 8 µg/mL. The minimal inhibitory concentration (MIC) in the assay on S. aureus [1] (setting [5]) stood at 0.5 µg/mL (≈ 1.35 µM).
In turn, `CN[C@H](CC(C)C)C(=O)N[C@H]1C(=O)N[C@@H](CC(N)=O)C(=O)N[C@H]2C(=O)N[C@H]3C(=O)N[C@H](C(=O)N[C@H](C(=O)O)c4cc(O)cc(O)c4-c4cc3ccc4O)[C@H](O)c3ccc(c(Cl)c3)Oc3cc2cc(c3O[C@@H]2O[C@H](CO)[C@@H](O)[C@H](O)[C@H]2O[C@H]2C[C@](C)(N)[C@H](O)[C@H](C)O2)Oc2ccc(cc2Cl)[C@H]1O` [V, Vancomycin] had an MBEC with S. aureus [1] (S. aureus, polystyrene wells) of 8 µg/mL. In the assay on S. aureus [1], this molecule gave a minimum inhibitory concentration (MIC) of 1 µg/mL (≈ 0.69 µM).
Take `COc1c(N2C[C@@H]3CCCN[C@@H]3C2)c(F)cc2c(=O)c(C(=O)O)cn(C3CC3)c12` [X, Moxifloxacin]: the MBEC in the assay with S. aureus [1] (S. aureus, polystyrene wells) worked out at 0.5 µg/mL; in the assay on Aa, 0.1 µg/mL. The MIC in the assay on S. aureus [1] (setting [5]) and in the assay with Aa was 0.05 µg/mL (≈ 0.125 µM) in each case.
